# “Also recorded” adds a separate entry of the source.
# Experiments:
# [1] = system: pSTAT5; test: pSTAT5 levels 48 h after IL-2 plus derivatives, flow cytometer; type: cell-based; settings: with IL-2, 48 h
# Description: Cells were treated with IL-2 and several derivatives of HOAt. Levels of pSTAT5 were measured 48 h later by flow cytometer.
# [2] = system: latent HIV-1; test: Reactivation of latent HIV-1 in latently infected cultured TCM (GFP / p24Gag by flow cytometry); type: cell-based; settings: for ability to induce viral reactivation compared to the original hit HOBt: panel of 7 derivatives of HOBt (FIG. 2D); for activation of latent HIV-1 (viral reactivation): 72 hours after stimulation, GFP or p24Gag by flow cytometry
# Description: A novel primary cell model for the study of HIV-1 latency was adapted so as to be suitable for high-throughput screening (HTS) of new compounds that may reactivate HIV-1 from its latency state (Bosque and Planelles, 2009; Bosque and Planelles, 2010; and patent application: Methods and compositions relating to viral latency, Planelles V, Basque A, U.S. Patent Application 2010/0291067 A1, November 2010).
# To facilitate HTS, the nef gene was replaced with that encoding the green fluorescent protein (GFP). It was confirmed that deletion of nef has no effect in latency/reactivation (Bosque and Planelles, 2009) and that using GFP provides a faster, more economical, and equally sensitive, as compared to intracellular p24 detection, readout.
# The reactivation experiments were modified to be performed in 96-well plates, utilizing 100,000 cells per well. After reactivation, flow cytometric analysis was performed with Becton Dickinson FACSCanto II with a High Throughput Sampler (HTS) for microtiter plates that is available through the Flow Cytometry Core Facility at the University of Utah. It takes about 30 minutes to analyze a plate, when acquiring 10,000 cells per well. Analysis for each well includes (a) green fluorescence as a direct indicator of viral reactivation; and (b) forward and side scatter as general measures of cell morphology, which is a gross indication of viability.
# Latently infected cells were generated using healthy, uninfected DONOR 78 cells that were infected with DHIV virus. Reactivation was monitored by analysis of GFP by Flow Cytometry 72 hours after stimulation. Beads coated with anti-CD3/anti CD28 (CD3/CD28) were used as a positive reactivation stimulus. Reactivation was done in a 96-well plate round bottom. […] This compound is an intermediate en route to synthesis of a cyclic peptide isolated from a tunicate.
# HPLC was used to generate 20 fractions based on elution time using a gradient from 10-100% acetonitrile in 0.1% formic acid using a Phenomenex Kinetic C18 50×2.10 mm column ([…], 100 A). The ability of these fractions to activate HIV-1 was tested and compared in parallel with the original hit. […] Further fractionation of C7 was performed and each fraction tested at the concentration indicated in the graph (FIG. 1D). […] Finally, HOBt was tested at different concentrations and analyzed on either Day 3, Day 5, or Day 7.
# [3] = system: memory T cells; test: T cell differentiation (CCR7 and CD27 levels); type: cell-based, human; settings: three days post activation
# Description: (§1) Memory cells were generated from 3 different donors and treated with either HOBt or anti-CD3/CD28 to analyze the effect of HOBt on T cell activation (FIG. 6A). Analysis of T cell activation was done by analyzing the upregulation of the activation markers CD25 and CD69 three days post activation. […] Analysis of T cell differentiation was done by analyzing the levels of CCR7 and CD27 three days post activation (FIG. 6B).
# [4] = system: memory T cells / cultured TCM; test: T cell activation (activation markers CD25 and CD69); type: cell-based, human; settings: for increase of CD25 levels (mean intensity of fluorescence): maximum concentration used (compound), TCR engagement (αCD3/αCD28)
# Description: as §1
# (§2) In order to determine whether HOAt is inducing T cell proliferation, culter TCM were incubated with HOAt in a dose dependent manner. […] It has been shown previously that both cultured TCM and ex vivo TCM express low levels of CD25 (Bosque et al. 2011). This level is increased by 37 times after TCR engagement with αCD3/αCD28, measured as mean intensity of fluorescence (values between parenthesis, FIG. 6D).
# CD69 upregulation is concomitant with T cell activation.
# [5] = system: latent HIV-1; test: Reactivation of latent HIV-1 in absence or presence of γc-cytokines; type: cell-based; settings: for viral reactivation in the presence of IL-2, IL-4, and IL-15: as worded; for viral reactivation in the presence of IL-2, IL-7 and IL-5: as worded in FIG. 3 legend b37; for viral reactivation in combination with IL-4: combined with IL-4; for viral reactivation in combination with IL-9 and IL-21: combined with IL-9 or IL-21; for viral reactivation in the absence of γc-cytokines: no cytokines, p24Gag 72 hours; for viral reactivation by cytokine alone: cytokine by itself, compared with absence of cytokines
# Description: Latently infected cells were generated using healthy, uninfected DONOR 78 cells that were infected with DHIV virus. Reactivation was monitored by analysis of p24Gag by Flow Cytometry 72 hours after stimulation.
# [6] = system: cultured TCM; test: T cell proliferation of cultured TCM; type: cell-based, human; settings: dose dependent incubation
# Description: as §2
# [7] = system: latent HIV-1; test: Blocking of viral reactivation by chemical inhibitors of known signaling pathways; type: cell-based; settings: reactivation stimulus HOAt
# Description: The ability of chemical inhibitors of known signaling pathways to block viral reactivation mediated by HOAt was examined (FIG. 4A). […] Activation of JAK kinases lead to the activation of the transcription factors STATs. Specific inhibitors of STAT3 and STAT5 were thus also studied.
# [8] = system: STAT5; test: Nuclear localization of STAT5; type: cell-based, human; settings: IL-2 alone or in the presence of HOAt
# Description: Nuclear translocation of STAT5 is required for its transcriptional activity. […] Histone H3 and alpha Tubulin were used as controls for purity of the fractionation.
# [9] = system: SOCS3; test: Expression levels of SOCS3, a target gene for STAT5; type: cell-based, human; settings: IL-2 and HOAt, 24 h post-treatment
# Description: STAT5 is a transcriptional activator of multiple genes. To address whether HOAt will increase the transcription of any STAT5 target genes, the expression levels of SOCS3, a target gene for STAT5, were analyzed.
# [10] = system: pSTAT5; test: pSTAT5 immunoprecipitation and western blot; type: cell-based; settings: 30 min pretreatment, then IL-2 for 30 min
# Description: STAT5 was immunoprecipitated with antibodies specific for the phosphorylated protein and western blot was performed against pSTAT5.
# [11] = system: latent HIV-1; test: Viral reactivation mediated by other stimuli (PMA, ionomycin, SAHA); type: cell-based; settings: HOAt added to each of three stimuli
# [12] = system: STAT5; test: STAT5 phosphorylation by flow cytometry in cultured TCM; type: cell-based, human
# Description: The levels of STAT5 phosphorylation were analyzed by flow cytometry after incubating cultured TCM with HOAt, IL-2, or a combination of both, during a 24 h period (FIG. 4B).
# [13] = system: latent HIV-1; test: Reactivation of latent HIV-1 in cells isolated from aviremic HIV-1 patients; type: cell-based; settings: cells of two patients suppressed with antiretroviral; versus DMSO control
# Description: Briefly, cells for two patients suppressed with antiretroviral were isolated and treated with either DMSO (Control), HOAt or the mitogen PHA.
molecule,measurement,setting,value
"O=c1c2ccccc2nnn1O [HO-DhBt, 3-hydroxybenzo[d][1,2,3]triazin-4-(3H)-one]",maintenance of pSTAT5 levels,[1],maintain pSTAT5 levels in a dose dependent manner
same,ability to induce viral reactivation compared to the original hit HOBt,[2],able to induce viral reactivation in a dose dependent manner and with increased efficiency; also recorded: increased ability to induce viral reactivation in a dose dependent manner
"On1nnc2ccccc21 [HOBt, 1-hydroxybenzotriazole]",T cell differentiation (loss of CCR7 and CD27 expression),[3],does not induce T cell differentiation
same,increase of CD25 levels (mean intensity of fluorescence),[4],1.4 times
same,general T cell activation (upregulation of CD25 and CD69),"[4]; three days post activation, 3 donors",does not induce general T cell activation
same,"viral reactivation in the presence of IL-2, IL-4, and IL-15",[5],dramatically increase viral reactivation
same,"viral reactivation in the presence of IL-2, IL-7 and IL-5",[5],increase viral reactivation
same,viral reactivation in combination with IL-4,[5],induced significant viral reactivation; also recorded: did induce significant viral reactivation
same,viral reactivation in combination with IL-9 and IL-21,[5],did not have an effect in viral reactivation
same,viral reactivation in the absence of γc-cytokines,[5],significantly reactivate HIV-1 latency
same,maintenance of pSTAT5 levels,[1],maintain pSTAT5 levels in a dose dependent manner
same,activation of latent HIV-1 (viral reactivation),[2],activate latent HIV-1 in a dose-dependent manner; also recorded: able to reactivate HIV-1 latency; also recorded: reactivate HIV-1 latency in a dose dependent manner; also recorded: activates HIV-1 latent cells
same,kinetics of HIV-1 latency reactivation compared with anti-CD3/CD28,"[2]; analyzed on Day 3, Day 5, or Day 7",slower kinetics
same,T cell proliferation,[6],only induces some degree of T cell proliferation at the higher concentration tested
IL-9: γc-cytokine,viral reactivation by cytokine alone,[5],did not have an effect in viral reactivation; also recorded: no effect
O=C(N/N=C/c1coc2ccccc2c1=O)c1cccnc1 [STAT5 inhibitor],effect on viral reactivation induced by HOAt,[7],completely abrogates viral reactivation; also recorded: completely prevent activation of latent HIV-1 by HOAt
"On1nnc2cccnc21 [HOAt, 1-hydroxy-7-azabenzotriazole]",levels of T cell activation (CD69) compared with αCD3/αCD28,[4]; CD69 upregulation,slightly increases the levels of T cell activation
same,increase of CD25 levels (mean intensity of fluorescence),[4],1.4 times
same,pSTAT5 and STAT5 levels in the nucleus,[8],increased in the nucleus; also recorded: increases the nuclear localization of STAT5
same,"viral reactivation in the presence of IL-2, IL-4, and IL-15",[5],dramatically increase viral reactivation
same,"viral reactivation in the presence of IL-2, IL-7 and IL-5",[5],increase viral reactivation
same,viral reactivation in combination with IL-4,[5],induced significant viral reactivation; also recorded: did induce significant viral reactivation
same,viral reactivation in combination with IL-9 and IL-21,[5],did not have an effect in viral reactivation
same,viral reactivation in the absence of γc-cytokines,[5],significantly reactivate HIV-1 latency
same,maintenance of pSTAT5 levels,[1],maintain pSTAT5 levels in a dose dependent manner
same,activation of latent HIV-1 (viral reactivation),[2],able to reactivate HIV-1 latency; also recorded: activates HIV-1 latent cells; also recorded: activate latent HIV-1; also recorded: reactivate HIV-1 latency in a dose dependent manner
same,ability to induce viral reactivation compared to the original hit HOBt,[2],more potent analog than the original hit; also recorded: increased activity compared to HOBt
same,levels (transcription) of SOCS3,[9],increase the levels of SOCS3; also recorded: increases the transcription of SOC3S
same,levels of pSTAT5 in the inputs,[10],increases the levels of pSTAT5
same,"viral reactivation mediated by PMA, ionomycin and SAHA",[11],able to increase viral reactivation mediated by these three stimuli; also recorded: increases viral reactivation
same,"STAT5 phosphorylation, agent alone over untreated cells",[12]; HOAt alone,able to induce an increase in STAT5 phosphorylation over untreated cells
same,"STAT5 phosphorylation, combination with IL-2",[12]; IL-2 and HOAt,drastic increase in STAT5 phosphorylation
same,"STAT5 phosphorylation after 24 hrs, combination with IL-2","[12]; IL-2 and HOAt, 24 hrs",do not significantly decrease
same,regrowth of latent viruses in patient cells in vitro,[13],can induce regrowth of latent viruses in both patients
same,T cell proliferation,[6],only induces some degree of cell proliferation at the higher concentration tested
Cc1ccc2nc(NCCN)c3ncc(C)n3c2c1 [BMS345541],effect on viral reactivation induced by HOAt,[7],did not have a significant effect
IL-21: γc-cytokine,viral reactivation by cytokine alone,[5],did not have an effect in viral reactivation; also recorded: no effect
"IL-7: γc-cytokine (protein, UniProt P13232 26-177, looked up) Interleukin-7: DCDIEGKDGKQYESVLMVSIDQLLDSMKEIGSNCLNNEFNFFKRHICDANKEGMFLFRAARKLRQFLKMNSTGDFDLHLLKVSEGTTILLNCTGQVKGRKPAALGEAQPTKSLEENKSLKEQKKLNDLCFLKRLLQEIKTCWNKILMGTKEH",viral reactivation by cytokine alone,[5],trend towards increasing viral reactivation
"IL-4: γc-cytokine (protein, UniProt P05112 25-153, looked up) Interleukin-4: HKCDITLQEIIKTLNSLTEQKTLCTELTVTDIFAASKNTTEKETFCRAATVLRQFYSHHEKDTRCLGATAQQFHRHKQLIRFLKRLDRNLWGLAGLNSCPVKEANQSTLENFLERLKTIMREKYSKCSS",viral reactivation by cytokine alone,[5],not able to induce significant viral reactivation by itself; also recorded: did not induce viral reactivation by itself

# Reference: patent US9730928B2, “Trizol-1-OL analogs anti-retroviral latency drugs” (priority 2013, dated 2017)
